The source of these data is PMC9299988, “Substrate‐Inspired Fragment Merging and Growing Affords Efficacious LasB Inhibitors” (Angewandte Chemie (International Ed. in English), 2021).

Molecules are shown by their SMILES. Like-named read-outs stand apart in the source and are kept apart here.

Data set [1] concerns the target T1, LasB (Pseudomonas aeruginosa, UniProt Q02RJ6).
T1 construct: The purification of LasB from P. aeruginosa P14 supernatant and the; made in house; host or cells: P. aeruginosa PA14 (native producer), culture supernatant
Put plainly: biochemical. The format is biochemical. How it is done:
LasB Inhibition Assay. […]
(§1) Preparation of P. aeruginosa supernatant and LasB activity evaluation. A culture of a single colony of PA14 was grown in lysogeny broth medium at 28 °C with constant shaking at 130 rpm for 3 days. Then, the culture was centrifuged at 4 °C, 5000 rpm for 30 minutes. Finally, the supernatant was passed through a membrane filter of […] to sterilize it. The supernatant

A further data set deals with MMP-8 (Homo sapiens, UniProt P22894). In words: Inhibition assay with human off-target MMP-8. The format is biochemical. The conditions noted are these: Table S2; concentration not given.
Chain of MMP-8 (P22894 101-467): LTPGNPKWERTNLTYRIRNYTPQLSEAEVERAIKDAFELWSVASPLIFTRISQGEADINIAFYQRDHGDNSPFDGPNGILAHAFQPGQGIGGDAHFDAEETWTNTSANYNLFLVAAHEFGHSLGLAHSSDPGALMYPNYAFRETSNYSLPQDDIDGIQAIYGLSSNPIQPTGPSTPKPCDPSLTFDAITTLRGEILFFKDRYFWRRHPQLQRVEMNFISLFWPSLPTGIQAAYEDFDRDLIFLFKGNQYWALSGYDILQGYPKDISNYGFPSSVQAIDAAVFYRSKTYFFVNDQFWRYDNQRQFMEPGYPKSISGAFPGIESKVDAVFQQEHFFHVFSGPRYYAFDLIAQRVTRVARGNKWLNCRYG
A further data set has as its target MMP-3 (Homo sapiens, UniProt P08254). In words: Inhibition assay with human off-target MMP-3. The conditions noted are these: Table S2; concentration not given. The format is biochemical.
A further data set has as its target HDAC-3 (Homo sapiens, UniProt O15379). Put plainly: Inhibition assay with human off-target HDAC-3. The format is biochemical. The conditions noted are these: Table S2.
A short description of the next data set: Cytotoxicity assay, A549. The conditions noted are these: human, A549 cells.
The target of the next data set is T2, HDAC-8 (Homo sapiens, UniProt Q9BY41).
T2 sequence (Q9BY41 1-377): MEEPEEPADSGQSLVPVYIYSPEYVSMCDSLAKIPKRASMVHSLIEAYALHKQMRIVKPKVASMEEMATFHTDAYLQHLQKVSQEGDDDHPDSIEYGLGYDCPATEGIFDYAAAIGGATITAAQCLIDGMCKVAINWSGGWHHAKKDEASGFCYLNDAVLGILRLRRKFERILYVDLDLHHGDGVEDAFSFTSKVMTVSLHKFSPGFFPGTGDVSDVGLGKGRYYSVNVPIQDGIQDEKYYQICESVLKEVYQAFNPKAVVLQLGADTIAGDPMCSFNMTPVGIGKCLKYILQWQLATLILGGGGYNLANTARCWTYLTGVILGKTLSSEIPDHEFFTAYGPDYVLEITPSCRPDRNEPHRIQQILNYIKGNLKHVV
In words: Inhibition assay with human off-target HDAC-8. In kind it is biochemical. The conditions noted are these: Table S2.

A further data set deals with MMP-14 (Homo sapiens, UniProt P50281). In words: Inhibition assay with human off-target MMP-14. In kind it is biochemical. The conditions noted are these: Table S2; concentration not given.
A short description of data set [2]: Cytotoxicity assay, HEK 293. The conditions noted are these: human, HEK 293 cells.
In a further data set the target is T3, MMP-7 (Homo sapiens, UniProt P09237).
T3 sequence (P09237 95-267): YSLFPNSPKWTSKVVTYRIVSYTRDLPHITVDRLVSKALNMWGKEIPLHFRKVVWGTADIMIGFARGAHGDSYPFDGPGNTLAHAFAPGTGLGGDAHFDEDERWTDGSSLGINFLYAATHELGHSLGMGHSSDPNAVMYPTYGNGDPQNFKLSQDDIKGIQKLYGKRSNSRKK
In words: Inhibition assay with human off-target MMP-7. In kind it is biochemical. The conditions noted are these: Table S2; concentration not given.

A further data set concerns the target T4, MMP-2 (Homo sapiens, UniProt P08253).
T4 sequence (P08253 110-660): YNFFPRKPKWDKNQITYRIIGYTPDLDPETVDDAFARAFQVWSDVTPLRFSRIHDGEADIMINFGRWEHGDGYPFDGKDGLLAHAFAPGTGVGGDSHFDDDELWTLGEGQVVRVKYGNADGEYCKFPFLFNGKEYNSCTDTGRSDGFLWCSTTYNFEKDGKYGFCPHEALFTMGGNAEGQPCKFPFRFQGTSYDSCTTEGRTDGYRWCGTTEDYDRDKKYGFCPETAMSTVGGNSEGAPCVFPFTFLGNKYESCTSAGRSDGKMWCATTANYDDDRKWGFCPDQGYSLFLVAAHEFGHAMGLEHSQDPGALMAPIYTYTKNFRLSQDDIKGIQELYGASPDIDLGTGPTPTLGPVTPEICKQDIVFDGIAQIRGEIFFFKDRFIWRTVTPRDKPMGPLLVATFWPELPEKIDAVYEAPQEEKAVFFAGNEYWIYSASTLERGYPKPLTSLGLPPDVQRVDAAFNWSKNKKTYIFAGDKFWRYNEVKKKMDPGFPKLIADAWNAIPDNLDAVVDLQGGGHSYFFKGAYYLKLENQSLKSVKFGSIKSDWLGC
In words: Inhibition assay with human off-target MMP-2. In kind it is biochemical. The conditions noted are these: Table S2; concentration not given.

In the next data set the target is T5, MMP-1 (Homo sapiens, UniProt P03956).
T5 sequence (P03956 100-469): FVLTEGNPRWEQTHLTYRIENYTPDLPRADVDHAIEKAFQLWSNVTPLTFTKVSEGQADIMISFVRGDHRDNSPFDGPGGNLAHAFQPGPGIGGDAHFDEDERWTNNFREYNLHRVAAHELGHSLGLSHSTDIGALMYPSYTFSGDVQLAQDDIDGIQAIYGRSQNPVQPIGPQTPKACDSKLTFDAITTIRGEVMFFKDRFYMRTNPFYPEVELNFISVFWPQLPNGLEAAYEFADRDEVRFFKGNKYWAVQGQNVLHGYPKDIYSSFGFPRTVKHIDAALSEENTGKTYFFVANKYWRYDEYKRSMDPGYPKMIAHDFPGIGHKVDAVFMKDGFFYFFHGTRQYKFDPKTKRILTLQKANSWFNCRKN
Put plainly: Inhibition assay with human off-target MMP-1. The conditions noted are these: Table S2; concentration not given. In kind it is biochemical.

The nature of data set [3]: Cytotoxicity assay, HepG2. The conditions noted are these: human, HepG2 cells.
The next data set has as its system P. aeruginosa PA14. Put plainly: Minimum inhibitory concentration (MIC) assay. In kind it is cell-based, Pseudomonas aeruginosa.
The test system of data set [4] is Galleria mellonella larvae. In words: Galleria mellonella larvae survival model with P. aeruginosa PA14 supernatant. The format is in vivo. The conditions noted are these: for survival of larvae: 0.25 nmol compound injected with PA14 supernatant, three days of incubation, compared to PBS injected larvae; for survival of larvae, compound in PBS: compound in PBS without PA14 supernatant. How it is done: We next analyzed the antivirulence activity of LasB inhibitors in vivo, using a simple model based on G. mellonella larvae. […] We injected the larvae with the supernatant (s.n.) of P. aeruginosa PA14 with or without 0.25 nmol of either 4 or 7 g, incubated them for three days and recorded the survival once per day (Figure 3). […] Treatment of larvae with 0.25 nmol of compound 7 g increased survival up to 60% compared to PBS injected larvae.
PA14 s.n. was also present during compound treatment. PBS served as a negative control (dot dash). […]
as §1

In data set [5] the target is T1, LasB. In words: Calculation of Ligand Efficiency (LE) and Lipophilic Ligand Efficiency (LLE). The conditions noted are these: calculated. From the text:
Although structure‐guided exploration of the N‐aryl ring substitution provided us with a strong starting point for lead optimization, systematic variation of the substituent in the α‐position (R^1) should be considered to exploit the lipophilicity of the S2′ pocket. In addition, compound 7 g only occupies a small fraction (approx. 24%) of the total predicted binding pocket volume, leaving the S2′ pocket largely untouched (Figure S4). Therefore, extension of the thiol group in that direction should allow additional ligand‐protein interactions, leading to a further improved inhibitory potency. […]

The target of another data set is ADAM17 (Homo sapiens, UniProt P78536). In words: Inhibition assay with human off-target ADAM17 (TACE). In kind it is biochemical.
Chain of ADAM17 (P78536 215-824): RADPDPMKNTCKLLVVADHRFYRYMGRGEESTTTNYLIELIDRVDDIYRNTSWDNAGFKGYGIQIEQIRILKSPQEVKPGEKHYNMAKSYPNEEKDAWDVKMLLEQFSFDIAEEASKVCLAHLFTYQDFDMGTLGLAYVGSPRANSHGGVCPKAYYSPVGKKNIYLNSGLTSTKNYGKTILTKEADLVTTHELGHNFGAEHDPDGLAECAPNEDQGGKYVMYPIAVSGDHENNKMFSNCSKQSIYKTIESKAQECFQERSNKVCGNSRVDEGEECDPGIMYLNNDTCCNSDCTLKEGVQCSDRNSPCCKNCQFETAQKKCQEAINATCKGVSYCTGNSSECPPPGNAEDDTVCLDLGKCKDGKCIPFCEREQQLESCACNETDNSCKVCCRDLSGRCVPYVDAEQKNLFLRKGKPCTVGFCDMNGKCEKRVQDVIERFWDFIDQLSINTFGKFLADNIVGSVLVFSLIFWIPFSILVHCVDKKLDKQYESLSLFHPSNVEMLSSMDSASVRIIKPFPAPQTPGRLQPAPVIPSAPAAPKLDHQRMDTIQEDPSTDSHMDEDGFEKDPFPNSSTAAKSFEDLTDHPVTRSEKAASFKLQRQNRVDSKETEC
The target of data set [6] is T1, LasB. The conditions noted are these: read-out: IC50 (known LasB inhibitors); Figure 1, known LasB inhibitors; cited from earlier work.
Data set [7] can be described thus: in vitro. The conditions noted are these: human.
Data set [8] can be described thus: in vitro. The conditions noted are these: human. This is another data set of the same source.
Data set [9] can be described thus: in vitro. The conditions noted are these: human. The source holds these as a separate data set.
Data set [10] has as its system human embryonic kidney (HEK) 293 cells. In words: Cytotoxicity assay, HEK 293. The conditions noted are these: HEK cells, at 100 µM.
Data set [11] deals with human hepatoma cell line (HepG2). In words: Cytotoxicity assay, HepG2. The conditions noted are these: HepG2, at 100 µM.

T1 sequence (Q02RJ6 198-498): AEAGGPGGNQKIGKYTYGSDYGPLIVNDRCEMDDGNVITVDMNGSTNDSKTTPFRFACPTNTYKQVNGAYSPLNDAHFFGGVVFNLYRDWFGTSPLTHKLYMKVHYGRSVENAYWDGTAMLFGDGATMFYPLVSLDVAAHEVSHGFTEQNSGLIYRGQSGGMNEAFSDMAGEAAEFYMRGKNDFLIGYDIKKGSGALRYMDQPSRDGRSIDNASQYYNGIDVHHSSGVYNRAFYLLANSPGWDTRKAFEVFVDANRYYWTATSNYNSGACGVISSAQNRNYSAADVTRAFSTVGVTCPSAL
Chain of MMP-3 (P08254 100-477): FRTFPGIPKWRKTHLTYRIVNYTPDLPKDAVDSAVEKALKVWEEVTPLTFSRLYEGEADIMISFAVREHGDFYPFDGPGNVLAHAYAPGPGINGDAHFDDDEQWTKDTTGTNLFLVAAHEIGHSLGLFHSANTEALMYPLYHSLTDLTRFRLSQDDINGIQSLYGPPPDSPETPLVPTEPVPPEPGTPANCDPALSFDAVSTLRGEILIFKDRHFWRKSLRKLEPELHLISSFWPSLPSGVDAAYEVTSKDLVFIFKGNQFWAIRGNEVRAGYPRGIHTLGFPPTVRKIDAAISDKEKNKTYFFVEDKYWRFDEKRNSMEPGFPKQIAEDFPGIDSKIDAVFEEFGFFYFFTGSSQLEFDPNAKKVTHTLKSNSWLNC
Chain of HDAC-3 (O15379 whole entry): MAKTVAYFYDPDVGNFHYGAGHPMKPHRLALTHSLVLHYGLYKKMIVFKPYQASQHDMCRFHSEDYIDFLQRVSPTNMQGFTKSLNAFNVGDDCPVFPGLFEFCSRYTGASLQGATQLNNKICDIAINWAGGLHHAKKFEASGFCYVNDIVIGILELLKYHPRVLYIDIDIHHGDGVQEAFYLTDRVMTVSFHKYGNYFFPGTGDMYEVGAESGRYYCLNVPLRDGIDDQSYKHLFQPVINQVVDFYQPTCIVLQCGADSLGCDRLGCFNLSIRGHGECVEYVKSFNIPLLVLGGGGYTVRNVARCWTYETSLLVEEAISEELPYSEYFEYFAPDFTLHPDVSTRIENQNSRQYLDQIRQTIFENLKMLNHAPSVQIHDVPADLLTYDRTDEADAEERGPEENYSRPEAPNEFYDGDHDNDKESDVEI
Chain of HDAC-3 (Q9Y618 395-489 partner limits assumed): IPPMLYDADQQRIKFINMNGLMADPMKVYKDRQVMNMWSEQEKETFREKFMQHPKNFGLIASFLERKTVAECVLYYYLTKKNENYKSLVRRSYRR

The IC50 is the concentration needed to halve the response being measured. For `O=C(Nc1ccc(Cl)c(Cl)c1)C(S)CC1CCCCC1` (stereo not shown) [7 b], the IC50 against LasB [1] worked out at 12 ± 3 µM.
The compound `O=C(Nc1ccc(Cl)c(Cl)c1)C(S)CC1CC1` (stereo not shown) [7 c] yielded an IC50 on LasB [1] of 6.3 ± 1.2 µM.
The term MIC denotes the smallest concentration in the dilution series that meets the test's criterion for growth inhibition. Low values mean a more susceptible organism, high ones a less susceptible organism. With `O=C(Nc1ccccc1)C(S)Cc1ccccc1` (stereo not shown) [7 d], at MMP-8, the “inhibition of MMP-8” value turned out to be 26 ± 4%. For the same compound, the “inhibition of MMP-3” value against MMP-3 is given as “n.i. (n.i. = <10% inhibition)”. Besides, the IC50 at HDAC-3 was more than 100 µM; in “Cytotoxicity assay, A549” it was more than 100 µM; against HDAC-8 it was more than 100 µM; in data set [2] it was more than 100 µM; in data set [3] it was more than 100 µM. For the same compound, the “inhibition of MMP-14” value against MMP-14 was “n.i. (n.i. = <10% inhibition)”. Further, the “fold improvement in IC50 value compared to 7 a” value at LasB [1] (versus compound 7 a) is on record as “two‐fold”. Besides, at MMP-7, the “inhibition of MMP-7” value is “n.i. (n.i. = <10% inhibition)”. Besides, on MMP-2, the “inhibition of MMP-2” value was “n.i. (n.i. = <10% inhibition)”. Also, the “inhibition of MMP-1” value at MMP-1 is recorded as “n.i. (n.i. = <10% inhibition)”. Besides, the MIC against P. aeruginosa PA14 and in the data set with P. aeruginosa PA14 (Pseudomonas aeruginosa) was more than 100 µM each time.
On LasB [1], `Cc1ccccc1NC(=O)C(S)Cc1ccccc1` (stereo not shown) [7 e] displayed an IC50 of 2.4 ± 1 µM.
On the same count and under the same terms, the figure for `Cc1cccc(NC(=O)C(S)Cc2ccccc2)c1` (stereo not shown) [7 f] is 1 ± 0.4 µM.
With `Cc1ccc(NC(=O)C(S)Cc2ccccc2)cc1` (stereo not shown) [7 g], the IC50 was more than 100 µM in the data set “Cytotoxicity assay, A549”; 0.48 ± 0.04 µM against LasB [1]; more than 100 µM in [2]; 4.8 ± 1.5 µM on ADAM17 (Table S2, read-out: IC50 ADAM17); more than 100 µM in data set [3]. Besides, the survival of larvae entry in [4] is recorded as “up to 60%”. The “survival of larvae, compound in PBS” value in data set [4] amounted to 100%. Also, the “Ligand Efficiency (LE)” value on LasB [5] is listed as 0.43. In addition, the “Lipophilic Ligand Efficiency (LLE)” value on LasB [5] is on record as 2.37. The MIC in the data set on P. aeruginosa PA14 (Pseudomonas aeruginosa) is more than 100 µM.
As to `CC(C)C[C@H](NP(=O)(O)O[C@@H]1O[C@@H](C)[C@H](O)[C@@H](O)[C@H]1O)C(=O)N[C@@H](Cc1c[nH]c2ccccc12)C(=O)O` [Compound 1, phosphoramidon], the IC50 at LasB [6] is 0.207 µM.
In the case of `O=C(CS)Nc1ccc(Cl)c(Cl)c1` [Compound 4, N‐(3,4‐dichlorophenyl) mercaptoacetamide], the IC50 in “in vitro [7]”, on HDAC-3, at HDAC-8, in the data set “in vitro [8]”, in “in vitro [9]” and at ADAM17 was more than 100 µM each time. Also, at MMP-8, the “inhibition of MMP-8” value is reported as “n.i. (n.i. = <10% inhibition)”. Moreover, the “inhibition of MMP-3” value against MMP-3 was “n.i. (n.i. = <10% inhibition)”. Also, on MMP-14, the “inhibition of MMP-14” value is listed as “n.i. (n.i. = <10% inhibition)”. Further, the survival of larvae result in data set [4] is given as “virtually no improvement in survival”. The “survival of larvae, compound in PBS” value in data set [4] was 100%. The reduction in viability came out at 33±10% in data set [10] and 23±3% in [11]. For the same compound, the “inhibition of MMP-7” value at MMP-7 is on record as “n.i. (n.i. = <10% inhibition)”. The “inhibition of MMP-2” value on MMP-2 was “n.i. (n.i. = <10% inhibition)”. Also, the “inhibition of MMP-1” value against MMP-1 is on record as “n.i. (n.i. = <10% inhibition)”. Also, the MIC with P. aeruginosa PA14 (Pseudomonas aeruginosa) was more than 100 µM.
